Reference: US20190248779A1, “COMPOUNDS, COMPOSITIONS, AND METHODS FOR INCREASING CFTR ACTIVITY” (Proteostasis Therapeutics, Inc., priority 2016, published 2019)

Target: T1, ΔF508-CFTR (Homo sapiens, UniProt P13569, DEL508-508)
T1 construct: Primary lung epithelial cells homozygous for the Cystic Fibrosis-causing ΔF508 mutation were differentiated for a minimum of 4 weeks; endogenous in cells; host or cells: primary lung (bronchial) epithelial cells (hBE) homozygous for ΔF508, differentiated at an air-liquid interface
T1 sequence (P13569 with tags, fused parts or gaps DEL508-508): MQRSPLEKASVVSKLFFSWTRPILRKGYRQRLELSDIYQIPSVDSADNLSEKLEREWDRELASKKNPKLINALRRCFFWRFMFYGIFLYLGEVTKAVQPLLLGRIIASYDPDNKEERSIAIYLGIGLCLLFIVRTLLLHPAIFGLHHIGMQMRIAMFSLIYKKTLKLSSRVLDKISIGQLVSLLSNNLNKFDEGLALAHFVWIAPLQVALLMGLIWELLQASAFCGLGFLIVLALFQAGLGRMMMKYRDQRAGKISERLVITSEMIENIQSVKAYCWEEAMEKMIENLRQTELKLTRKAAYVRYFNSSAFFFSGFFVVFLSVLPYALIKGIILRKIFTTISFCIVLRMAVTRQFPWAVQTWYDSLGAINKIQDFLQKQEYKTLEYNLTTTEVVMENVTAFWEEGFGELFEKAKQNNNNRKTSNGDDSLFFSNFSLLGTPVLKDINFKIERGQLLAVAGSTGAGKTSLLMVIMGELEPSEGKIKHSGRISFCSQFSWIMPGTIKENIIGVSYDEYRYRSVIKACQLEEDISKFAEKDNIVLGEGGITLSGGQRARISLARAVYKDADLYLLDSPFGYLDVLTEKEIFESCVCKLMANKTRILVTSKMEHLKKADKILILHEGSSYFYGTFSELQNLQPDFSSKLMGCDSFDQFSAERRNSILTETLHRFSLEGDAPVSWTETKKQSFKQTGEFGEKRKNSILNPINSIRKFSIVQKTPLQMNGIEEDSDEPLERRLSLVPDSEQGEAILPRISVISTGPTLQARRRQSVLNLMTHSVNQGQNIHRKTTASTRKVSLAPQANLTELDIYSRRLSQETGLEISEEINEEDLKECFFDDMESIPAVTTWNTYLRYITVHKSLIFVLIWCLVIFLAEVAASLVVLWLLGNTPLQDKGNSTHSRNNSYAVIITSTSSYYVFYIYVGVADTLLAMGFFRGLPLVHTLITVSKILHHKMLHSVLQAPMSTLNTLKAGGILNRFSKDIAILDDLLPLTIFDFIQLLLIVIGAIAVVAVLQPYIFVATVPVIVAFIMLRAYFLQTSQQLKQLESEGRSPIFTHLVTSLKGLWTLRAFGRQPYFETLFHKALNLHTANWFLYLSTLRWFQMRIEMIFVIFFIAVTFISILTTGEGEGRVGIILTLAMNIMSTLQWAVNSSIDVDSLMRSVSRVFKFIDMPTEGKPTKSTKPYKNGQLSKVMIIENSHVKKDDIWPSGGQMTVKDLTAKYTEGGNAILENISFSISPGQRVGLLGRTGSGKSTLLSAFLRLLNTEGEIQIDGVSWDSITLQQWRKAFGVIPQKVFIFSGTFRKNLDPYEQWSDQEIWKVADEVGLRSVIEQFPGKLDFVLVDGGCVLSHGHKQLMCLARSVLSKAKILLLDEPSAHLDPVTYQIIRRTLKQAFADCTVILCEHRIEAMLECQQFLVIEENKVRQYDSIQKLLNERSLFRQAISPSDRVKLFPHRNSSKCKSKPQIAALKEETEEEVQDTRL
Assay: hBE equivalent current (Ieq) assay
Type: cell-based
Settings: 24 h, relative to a CFTR amplifier at 3 uM, AUC of equivalent chloride current, primary lung epithelial cells homozygous for ΔF508; for Activity 10 μM: compound at 10 μM; for Activity 3 μM: compound at 3 μM
Experimental: ii. hBE Equivalent Current (Ieq) Assay
Primary lung epithelial cells homozygous for the Cystic Fibrosis-causing ΔF508 mutation were differentiated for a minimum of 4 weeks in an air-liquid interface on Costar 24 well HTS filter plates prior to the equivalent current (Ieq) measurements. Cells were apically mucus-washed for 30 minutes 24 h prior to treatment with compounds. The basolateral media was removed and replaced with media containing the compound of interest diluted to its final concentration from DMSO stocks. Treated cells were incubated at 37° C. and 5% CO2 for 24 hours. At the end of the treatment period, the media was changed to the Ieq experimental solution for 2 hours before the experiment and plates are maintained in a CO2-free incubator during this period. The plates containing the cells were then placed in pre-warmed heating blocks at 36° C.±0.5 for 15 minutes before measurements are taken. The transepithelial voltage (VT) and conductance (GT) were measured using a custom 24 channel current clamp (TECC-24) with 24 well electrode manifold. The Ieq assay measurements were made following additions with standardized time periods:
1. The baseline VT and GT values were measured for approximately 20 minutes.
2. Benzamil was added to block ENaC for 15 minutes.
3. Forskolin plus VX-770 were added to maximally activate ΔF508-CFTR for 27 minutes.
4. Bumetanide was added to inhibit the NaK2Cl cotransporter and shut-off secretion of chloride.
The activity data captured was the area under the curve (AUC) for the traces of the equivalent chloride current. The AUC was collected from the time of the forskolin/VX-770 addition until the inhibition by bumetanide addition. Correction in response to compound treatment was scored as the increase in the AUC for compound-treated samples over that of vehicle-treated samples.
The results are shown below in Table 1. + indicates activity <150% of a CFTR amplifier with compound at concentration shown and amplifier at 3 uM; ++ indicates activity >150% of a CFTR amplifier with compound at concentration shown and amplifier at 3 uM.

## CC(C(=O)Nc1ccc(C(F)(F)F)cc1)n1nc(-c2cc(Cl)cs2)ccc1=O (centres unmarked) [Compound 23, 2-(3-(4-Chlorothiophen-2-yl)-6-oxopyridazin-1(6H)-yl)-N-(4-(trifluoromethyl)phenyl)propanamide]
  Activity 10 μM: ++ (activity >150% of a CFTR amplifier with compound at concentration shown and amplifier at 3 uM)

## COc1cccc(-c2ccc(=O)n(C(C)C(=O)Nc3ccc4cc[nH]c4c3)n2)c1 (centres unmarked) [Compound 2, N-(1H-Indol-6-yl)-2-[3-(3-methoxyphenyl)-6-oxo-1,6-dihydropyridazin-1-yl]propanamide]
  Activity 3 μM: + (activity <150% of a CFTR amplifier with compound at concentration shown and amplifier at 3 uM)
  Activity 10 μM: + (activity <150% of a CFTR amplifier with compound at concentration shown and amplifier at 3 uM)

## COc1cccc(-c2ccc(=O)n(C(C)C(=O)Nc3ccccn3)n2)c1 (centres unmarked) [Compound 5, 2-(3-(3-Methoxyphenyl)-6-oxopyridazin-1(6H)-yl)-N-(pyridin-2-yl)propanamide]
  Activity 3 μM: + (activity <150% of a CFTR amplifier with compound at concentration shown and amplifier at 3 uM)
  Activity 10 μM: + (activity <150% of a CFTR amplifier with compound at concentration shown and amplifier at 3 uM)

## COc1cccc(-c2ccc(=O)n(C(C)C(=O)Nc3ccc4[nH]ccc4c3)n2)c1 (centres unmarked) [Compound 3, N-(1H-Indol-5-yl)-2-(3-(3-methoxyphenyl)-6-oxopyridazin-1(6H)-yl)propanamide]
  Activity 3 μM: + (activity <150% of a CFTR amplifier with compound at concentration shown and amplifier at 3 uM)
  Activity 10 μM: + (activity <150% of a CFTR amplifier with compound at concentration shown and amplifier at 3 uM)

## COc1cccc(-c2ccc(=O)n(C(C)C(=O)Nc3ccc(C(F)(F)F)nc3)n2)c1 (centres unmarked) [Compound 9, 2-(3-(3-Methoxyphenyl)-6-oxopyridazin-1(6H)-yl)-N-(6-(trifluoromethyl)pyridin-3-yl)propanamide]
  Activity 3 μM: ++ (activity >150% of a CFTR amplifier with compound at concentration shown and amplifier at 3 uM)
  Activity 10 μM: + (activity <150% of a CFTR amplifier with compound at concentration shown and amplifier at 3 uM)

## CC(C(=O)Nc1ccc(C(F)(F)F)cc1)n1nc(-c2cccs2)ccc1=O (centres unmarked) [Compound 13, 2-[6-oxo-3-(thiophen-2-yl)-1,6-dihydropyridazin-1-yl]-N-[4-(trifluoromethyl)phenyl]propanamide]
  Activity 3 μM: ++ (activity >150% of a CFTR amplifier with compound at concentration shown and amplifier at 3 uM)
  Activity 10 μM: + (activity <150% of a CFTR amplifier with compound at concentration shown and amplifier at 3 uM)
